Ki data for 8 molecules are collected here from patent US6727254B2 (Schering Corporation, priority 2001, dated 2004).

The target of the experiment is T1, ORL-1 receptor (Homo sapiens, UniProt P41146).
T1 construct: expressed in transfected cells; host or cells: CHO cells (membrane preparation)
Briefly: Nociceptin binding assay. The conditions noted are these: CHO cell membrane preparation expressing the ORL-1 receptor; [125I][Tyr14]nociceptin. The procedure:
CHO cell membrane preparation expressing the ORL-1 receptor (2 mg) was incubated with varying concentrations of [^125I][Tyr ^14]nociceptin (3-500 pM) in a buffer containing 50 mM HEPES (pH7.4), 10 mM NaCl, 1 mM MgCl2, 2.5 mM CaCl2, 1 mg/ml bovine serum albumin and 0.025% bacitracin. In a number of studies, assays were carried out in buffer 50 mM tris-HCl (pH 7.4), 1 mg/ml bovine serum albumin and 0.025% bacitracin. Samples were incubated for 1 h at room temperature (22° C.). Radiolabelled ligand bound to the membrane was harvested over GF/B filters presoaked in 0.1% polyethyleneimine using a Brandell cell harvester and washed five times with 5 ml cold distilled water. Nonspecific binding was determined in parallel by similar assays performed in the presence of 1 μM nociceptin. All assay points were performed in duplicates of total and non-specific binding.
Calculations of Ki were made using methods well known in the art.

T1 sequence (P41146 whole entry): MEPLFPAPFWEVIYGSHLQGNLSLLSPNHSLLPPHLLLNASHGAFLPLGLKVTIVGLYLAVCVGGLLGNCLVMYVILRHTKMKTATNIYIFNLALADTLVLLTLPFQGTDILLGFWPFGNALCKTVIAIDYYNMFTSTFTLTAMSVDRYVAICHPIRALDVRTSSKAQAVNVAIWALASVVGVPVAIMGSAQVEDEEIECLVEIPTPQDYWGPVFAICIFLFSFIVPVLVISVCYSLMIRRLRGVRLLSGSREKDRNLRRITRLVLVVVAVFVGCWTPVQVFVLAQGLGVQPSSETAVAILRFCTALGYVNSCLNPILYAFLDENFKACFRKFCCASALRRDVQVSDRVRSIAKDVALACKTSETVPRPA

`CCc1cnc(C2(O)CC3CCC(C2)N3C(c2ccccc2Cl)c2ccccc2Cl)nc1` (centres unmarked) [Example 2, 8-[Bis(2-chlorophenyl)methyl]-3-(5-ethyl-2-pyrimidinyl)-8-azabicyclo[3.2.1]octan-3-ol] displayed a Ki of 7.6 nM.

`OC1(c2nccc(N3CCNCC3)n2)CC2CCC(C1)N2C(c1ccccc1Cl)c1ccccc1Cl` (centres unmarked) [Example 3, 8-[Bis(2-chlorophenyl)methyl]-3-[4-(1-piperazinyl)-2-pyrimidinyl]-8-azabicyclo[3.2.1]octan-3-ol] came in with a Ki of 4 nM.

`OC1(c2ccccn2)CC2CCC(C1)N2C(c1ccccc1Cl)c1ccccc1Cl` (centres unmarked) [Example 4, 8-[Bis(2-Chlorophenyl)methyl]-3-(2-pyridinyl)-8-azabicyclo[3.2.1]octan-3-ol] came in with a Ki of 4 nM.

`COC1(c2ncccn2)CC2CCC(C1)N2C(c1ccccc1Cl)c1ccccc1Cl` (centres unmarked) [Example 6, 8-[Bis(2-chlorophenyl)methyl]-3-methoxy-3-(2-pyrimidinyl)-8-azabcyclo[3.2.1]octane] returned a Ki of 5.4 nM.

As to `Cn1nccc1C1(O)CC2CCC(C1)N2C(c1ccccc1Cl)c1ccccc1Cl` (centres unmarked) [Example 8, 8-[Bis(2-chlorophenyl)methyl]-3-(1-methyl-pyrazol-5-yl)-8-azabicyclo[3.2.1]octan-3-ol], the Ki is 6 nM.

Regarding `OC1(c2cccnn2)CC2CCC(C1)N2C(c1ccccc1Cl)c1ccccc1Cl` (centres unmarked) [Example 11, 8-[Bis(2-chlorophenyl)methyl]-3-(3-pyridazinyl)-8-azabicyclo[3.2.1]octan-3-ol], the Ki amounted to 7 nM.

Regarding `OC1(c2cnccn2)CC2CCC(C1)N2C(c1ccccc1Cl)c1ccccc1Cl` (centres unmarked) [Example 12, 8-[Bis(2-chlorophenyl)methyl]-3-(2-pyrazinyl)-8-azabicyclo[3.2.1]octan-3-ol], affinity was put at a Ki of 2 nM.

With `OC1(c2ccc(Br)cn2)CC2CCC(C1)N2C(c1ccccc1Cl)c1ccccc1Cl` (centres unmarked) [Example 14, 8-[Bis(2-chlorophenyl)methyl]-3-(5-bromo-2-pyridinyl)-8-azabicyclo[3.2.1]octan-3-ol], affinity was put at a Ki of 1.3 nM.

What is called Ki is a dissociation constant, usually derived from enzyme kinetics or from competition with a known ligand. Low readings indicate higher affinity, high ones lower affinity.
